# Reference: US20070254907A1, “COMPOSITIONS AND METHODS FOR CONTROLLING INFESTATION” (HATCHTECH PTY LTD, priority 2003, published 2007)
# Where “and” joins values, the source holds several entries; their conditions need not be identical. Equal values may be shown once.
# Experiments:
# lice eggs = assay: Standard lice egg-hatching assay, commercial head lice products with rinse; assay type: in vivo; conditions: for H (number of eggs successfully hatched) / Ph (number of eggs partly hatched): per replicate, products per manufacturer's recommendations, 1,10-phenanthroline 10 mM, rinsed
# Protocol: (§1) These three products were tested according to manufacturer's recommendations. Groups of eggs (24 hours old) were treated with the different products according to manufacturer's recommendations for the appropriate period of time (5-10 minutes) followed by a rinse for 1-2 minutes in 32° C. water. A positive controls (10 mM 1,10-phenanthroline) and two negative controls (no treatment and 20% Methanol) were also incorporated. Post exposure to the different products, the eggs were rinsed with warm water at 32° C. before being blotted dry on tissue paper and placed at 32° C., 70% RH and left to hatch. A second group of eggs, (48 hours old) were treated as previously described and also left to hatch. This process was repeated at 24 hour intervals on head lice eggs up to 120 hours post laying. This method of assaying inhibitors more closely mirrors the field situation where lice eggs will be at various stages of development on the head and permits the inhibitory effects to be observed on these different stages of the parasite.
# as §1, with “two” for “three”, “Two” for “A positive controls (10 mM 1,10-phenanthroline) and two”, “ethanol)” for “Methanol)”, “were” for “were rinsed with warm water at 32° C. before being”
# head lice eggs = assay: Head lice egg hatching with formulated compound; assay type: in vivo; conditions: 20 mM formulation
# Protocol: Gravid female lice were permitted to lay eggs. The eggs were counted, inspected under a light microscope and all eggs that appeared undamaged were allocated to one of two treatment groups. One group was exposed to 5′-dimethyl-2,2′-dipyridyl in a formulation, while the second group was exposed to the formulation only. The protocol was as follows:
# Treatments: 5'-dimethyl-2,2'dipyridyl (20mM) n=10
# Vehicle control only n=10
# Exposure time: 10 minutes
# Wash time: 1 minute @˜37° C.
# Incubation: All eggs were placed at 31° C. in a humid incubator and monitored for signs of development specifically of the eye and subsequent hatching, see Table 21.
# [1] = test system: third stage H. contortus larvae; assay: Survival and L3 to L4 moulting of third stage larvae; assay type: in vivo, Haemonchus contortus
# Protocol: Third stage H. contortus larvae were exposed to varying concentrations of 5,5′-dimethyl-2,2′-dipyridyl and the effects on moulting from L3 to L4 examined. The larvae were either exsheathed (their L2 sheath was removed chemically) or unexsheathed (their L2 sheaths were intact). The larvae were exposed to varying concentrations of 5,5′-dimethyl-2,2′-dipyridyl added to their culture media of DMEM and the effects on larval survival monitored over time. Following a 30 minute incubation at 37° C., greater than 90% of the exsheathed larvae exposed to 1 and 0.5 mM of the compound appeared dead. […] By day six post exposure greater than 90% of the larvae appeared to have died in the treatment groups while the control larvae appeared healthy.
# body louse eggs = assay: Standard body louse egg assay with formulated compound; assay type: in vivo, body lice; conditions: 10 minute exposure; for % of eggs that hatched following treatment: formulated
# Protocol: 5,5′-dimethyl-2,2′-dipyridyl was formulated and evaluated in the standard body louse egg assay. Body louse eggs (15-30 per replicate) of varying ages were exposed for 10 minute to the test solutions or a placebo or left untreated, followed by a 1 minute water wash and blotted dry. The eggs were then incubated at 30° C. over the following 10 days post treatment and the percentage of eggs that successfully hatched was determined (Table 20).
structure (smiles),measurement,setting,value
"c1cnc2c(c1)ccc1cccnc12 [1,10-phenanthroline, reference compound]",ovicidal activity across the different stages of lice egg hatching,lice eggs; 24-120 hr post egg laying,highly effective at inhibiting lice egg hatching
same,H (number of eggs successfully hatched),lice eggs; treated 24 hr post egg laying,0
same,Ph (number of eggs partly hatched),lice eggs; treated 24 hr post egg laying,0
same,H (number of eggs successfully hatched),lice eggs; treated 48 hr post egg laying,0
same,Ph (number of eggs partly hatched),lice eggs; treated 48 hr post egg laying,0
same,H (number of eggs successfully hatched),lice eggs; treated 72 hr post egg laying,0
same,Ph (number of eggs partly hatched),lice eggs; treated 72 hr post egg laying,0
same,H (number of eggs successfully hatched),lice eggs; treated 96 hr post egg laying,0
same,Ph (number of eggs partly hatched),lice eggs; treated 96 hr post egg laying,0
same,H (number of eggs successfully hatched),lice eggs; treated 120 hr post egg laying,0 and 4 and 1
same,Ph (number of eggs partly hatched),lice eggs; treated 120 hr post egg laying,0
"Cc1ccc(-c2ccc(C)cn2)nc1 [5,5′-dimethyl-2,2′-dipyridyl]",egg hatching in head lice,"head lice eggs; 10 minutes, 1 minute wash",significantly suppress egg hatching
same,eggs that failed to hatch (did not develop),head lice eggs; n=10 eggs,80%
same,appearance of unexsheathed larvae,"[1]; 10 μM, up to 6 days post exposure",larvae appeared normal
same,exsheathed larvae that appeared dead,"[1]; 1 and 0.5 mM in DMEM, 30 minute incubation at 37° C.",greater than 90%
same,unexsheathed larvae that appeared to have died,"[1]; day six post exposure, treatment groups",greater than 90%
same,effects on unexsheathed larvae compared to control larvae,[1]; up to 3 days post exposure,no adverse effects were observed
same,ovicidal activity of formulated compound on body louse eggs,body louse eggs; 1 minute water wash,strong dose dependency of ovicidal activity
same,% of eggs that hatched following treatment,"body louse eggs; 1 mM, age of eggs 24 hr",91%
same,% of eggs that hatched following treatment,"body louse eggs; 1 mM, age of eggs 48 hr",80%
same,% of eggs that hatched following treatment,"body louse eggs; 1 mM, age of eggs 96 hr",82%
same,% of eggs that hatched following treatment,"body louse eggs; 1 mM, age of eggs 120 hr",86%
same,% of eggs that hatched following treatment,"body louse eggs; 5 mM, age of eggs 24 hr",21%
same,% of eggs that hatched following treatment,"body louse eggs; 5 mM, age of eggs 48 hr",58%
same,% of eggs that hatched following treatment,"body louse eggs; 5 mM, age of eggs 96 hr",64%
same,% of eggs that hatched following treatment,"body louse eggs; 5 mM, age of eggs 120 hr",65%
same,% of eggs that hatched following treatment,"body louse eggs; 10 mM, age of eggs 24 hr",4%
same,% of eggs that hatched following treatment,"body louse eggs; 10 mM, age of eggs 48 hr",7%
same,% of eggs that hatched following treatment,"body louse eggs; 10 mM, age of eggs 96 hr",10%
same,% of eggs that hatched following treatment,"body louse eggs; 10 mM, age of eggs 120 hr",12%
same,% of eggs that hatched following treatment,"body louse eggs; 30 mM, age of eggs 24 hr",0%
same,% of eggs that hatched following treatment,"body louse eggs; 30 mM, age of eggs 48 hr",0%
same,% of eggs that hatched following treatment,"body louse eggs; 30 mM, age of eggs 96 hr",0%
same,% of eggs that hatched following treatment,"body louse eggs; 30 mM, age of eggs 120 hr",0%
